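In this assay, cells in 96-well plates receive the compound at five concentrations for 48 hours. Endpoints are linearly interpolated between the surrounding concentrations. GI50 marks 50% less growth. TGI: concentration producing complete growth inhibition.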
Tests used:
Test in all cases: inhibition of tumour cell growth, NCI panel, 48 h
786-0 renal = system: 786-0 renal
A498 renal = system: A498 renal
A549 NSCLC = system: A549 NSCLC
ACHN renal = system: ACHN renal
BT-549 breast = system: BT-549 breast
CAKI-1 renal = system: CAKI-1 renal
CCRF-CEM leukemia = system: CCRF-CEM leukemia
COLO 205 colon = system: COLO 205 colon
DU-145 prostate = system: DU-145 prostate
EKVX NSCLC = system: EKVX NSCLC
HCT-116 colon = system: HCT-116 colon
HCT-15 colon = system: HCT-15 colon
HL-60(TB) leukemia = system: HL-60(TB) leukemia
HOP-62 NSCLC = system: HOP-62 NSCLC
HOP-92 NSCLC = system: HOP-92 NSCLC
HS 578T breast = system: HS 578T breast
HT29 colon = system: HT29 colon
IGROV1 ovarian = system: IGROV1 ovarian
K-562 leukemia = system: K-562 leukemia
KM12 colon = system: KM12 colon
LOX IMVI melanoma = system: LOX IMVI melanoma
M14 melanoma = system: M14 melanoma
MALME-3M melanoma = system: MALME-3M melanoma
MCF7 breast = system: MCF7 breast
MDA-MB-231 breast = system: MDA-MB-231 breast
MDA-MB-435 = system: MDA-MB-435
MOLT-4 leukemia = system: MOLT-4 leukemia
NCI-H23 lung = system: NCI-H23 lung
NCI-H460 lung = system: NCI-H460 lung
NCI-H522 lung = system: NCI-H522 lung
NCI/ADR-RES ovarian = system: NCI/ADR-RES ovarian
OVCAR-3 ovarian = system: OVCAR-3 ovarian
OVCAR-4 ovarian = system: OVCAR-4 ovarian
OVCAR-5 ovarian = system: OVCAR-5 ovarian
OVCAR-8 ovarian = system: OVCAR-8 ovarian
PC-3 prostate = system: PC-3 prostate
RPMI-8226 leukemia = system: RPMI-8226 leukemia
RXF 393 renal = system: RXF 393 renal
SF-268 CNS = system: SF-268 CNS
SF-295 CNS = system: SF-295 CNS
SK-MEL-2 melanoma = system: SK-MEL-2 melanoma
SK-MEL-28 melanoma = system: SK-MEL-28 melanoma
SK-MEL-5 melanoma = system: SK-MEL-5 melanoma
SK-OV-3 ovarian = system: SK-OV-3 ovarian
SN12C renal = system: SN12C renal
SNB-19 CNS = system: SNB-19 CNS
SNB-75 CNS = system: SNB-75 CNS
SW-620 colon = system: SW-620 colon
T-47D breast = system: T-47D breast
TK-10 renal = system: TK-10 renal
U251 CNS = system: U251 CNS
UACC-257 melanoma = system: UACC-257 melanoma
UACC-62 melanoma = system: UACC-62 melanoma
UO-31 renal = system: UO-31 renal
HCC-2998 colon = system: HCC-2998 colon
NCI-H226 lung = system: NCI-H226 lung
SF-539 CNS = system: SF-539 CNS
SR leukemia = system: SR leukemia

## Cc1cc(C)nc(SCC(=O)OC2CC(C)CCC2C(C)C)n1 (stereo not drawn)
786-0 renal
  TGI: 42.6 µM
A498 renal
  TGI: 47.2 µM
A549 NSCLC
  TGI: 63.4 µM
ACHN renal
  TGI: 38.6 µM
BT-549 breast
  TGI: 79.9 µM
CAKI-1 renal
  TGI: 48.6 µM
CCRF-CEM leukemia
  TGI: 42.5 µM
COLO 205 colon
  TGI: 31 µM
DU-145 prostate
  TGI: > 100 µM
EKVX NSCLC
  TGI: 39.3 µM
HCT-116 colon
  TGI: 47 µM
HCT-15 colon
  TGI: 43.8 µM
HL-60(TB) leukemia
  TGI: 44.2 µM
HOP-62 NSCLC
  TGI: 27.2 µM
HOP-92 NSCLC
  TGI: 67.1 µM
HS 578T breast
  TGI: > 100 µM
HT29 colon
  TGI: 39.9 µM
IGROV1 ovarian
  TGI: 65.6 µM
K-562 leukemia
  TGI: 52.2 µM
KM12 colon
  TGI: 42.7 µM
LOX IMVI melanoma
  TGI: 37.5 µM
M14 melanoma
  TGI: 37 µM
MALME-3M melanoma
  TGI: 41.1 µM
MCF7 breast
  TGI: 50.7 µM
MDA-MB-231 breast
  TGI: 49.7 µM
MDA-MB-435
  TGI: 58.3 µM
MOLT-4 leukemia
  TGI: 38.6 µM
NCI-H23 lung
  TGI: > 100 µM
NCI-H460 lung
  TGI: 35.8 µM
NCI-H522 lung
  TGI: 46 µM
NCI/ADR-RES ovarian
  TGI: 50.7 µM
OVCAR-3 ovarian
  TGI: 28.5 µM
OVCAR-4 ovarian
  TGI: 50.6 µM
OVCAR-5 ovarian
  TGI: 47.9 µM
OVCAR-8 ovarian
  TGI: > 100 µM
PC-3 prostate
  TGI: 69.5 µM
RPMI-8226 leukemia
  TGI: 41.3 µM
RXF 393 renal
  TGI: 32 µM
SF-268 CNS
  TGI: > 100 µM
SF-295 CNS
  TGI: 31.6 µM
SK-MEL-2 melanoma
  TGI: 41.9 µM
SK-MEL-28 melanoma
  TGI: > 100 µM
SK-MEL-5 melanoma
  TGI: 29 µM
SK-OV-3 ovarian
  TGI: > 100 µM
SN12C renal
  TGI: 37.2 µM
SNB-19 CNS
  TGI: 45.9 µM
SNB-75 CNS
  TGI: 65.8 µM
SW-620 colon
  TGI: 52.3 µM
T-47D breast
  TGI: 54.2 µM
TK-10 renal
  TGI: 89.9 µM
U251 CNS
  TGI: 53.8 µM
UACC-257 melanoma
  TGI: 41.7 µM
UACC-62 melanoma
  TGI: 33.9 µM
UO-31 renal
  TGI: 33.7 µM

## CC(C)(C)CNC(=O)NCn1cc(-c2ccccc2)nn1
786-0 renal
  TGI: > 100 µM
A549 NSCLC
  TGI: > 100 µM
ACHN renal
  TGI: > 100 µM
BT-549 breast
  TGI: > 100 µM
CAKI-1 renal
  TGI: > 100 µM
CCRF-CEM leukemia
  TGI: > 100 µM
COLO 205 colon
  TGI: > 100 µM
DU-145 prostate
  TGI: > 100 µM
EKVX NSCLC
  TGI: > 100 µM
HCC-2998 colon
  TGI: > 100 µM
HCT-116 colon
  TGI: > 100 µM
HCT-15 colon
  TGI: > 100 µM
HL-60(TB) leukemia
  TGI: > 100 µM
HOP-62 NSCLC
  TGI: > 100 µM
HOP-92 NSCLC
  TGI: > 100 µM
HT29 colon
  TGI: > 100 µM
IGROV1 ovarian
  TGI: > 100 µM
K-562 leukemia
  TGI: > 100 µM
KM12 colon
  TGI: > 100 µM
LOX IMVI melanoma
  TGI: > 100 µM
M14 melanoma
  TGI: > 100 µM
MALME-3M melanoma
  TGI: > 100 µM
MCF7 breast
  TGI: > 100 µM
MDA-MB-231 breast
  TGI: > 100 µM
MOLT-4 leukemia
  TGI: > 100 µM
NCI-H226 lung
  TGI: > 100 µM
NCI-H23 lung
  TGI: > 100 µM
NCI-H460 lung
  TGI: > 100 µM
NCI-H522 lung
  TGI: > 100 µM
NCI/ADR-RES ovarian
  TGI: > 100 µM
OVCAR-5 ovarian
  TGI: > 100 µM
OVCAR-8 ovarian
  TGI: > 100 µM
PC-3 prostate
  TGI: > 100 µM
RPMI-8226 leukemia
  TGI: > 100 µM
SF-268 CNS
  TGI: > 100 µM
SF-295 CNS
  TGI: > 100 µM
SF-539 CNS
  TGI: > 100 µM
SK-MEL-2 melanoma
  TGI: > 100 µM
SK-MEL-28 melanoma
  TGI: > 100 µM
SK-MEL-5 melanoma
  TGI: > 100 µM
SN12C renal
  TGI: > 100 µM
SNB-19 CNS
  TGI: > 100 µM
SR leukemia
  TGI: > 100 µM
SW-620 colon
  TGI: > 100 µM
TK-10 renal
  TGI: > 100 µM
U251 CNS
  TGI: > 100 µM
UACC-257 melanoma
  TGI: > 100 µM

## O=C(N=Nc1c(O)[nH]c2ccccc12)c1oc2ccccc2c1CN1CCN(c2ccccc2)CC1
786-0 renal
  GI50: 0.865 µM
  TGI: 1.84 µM
A498 renal
  GI50: 1.56 µM
  TGI: 8.87 µM
A549 NSCLC
  GI50: 1.54 µM
  TGI: 8.21 µM
ACHN renal
  GI50: 1.02 µM
  TGI: 2.53 µM
BT-549 breast
  GI50: 5.81 µM
  TGI: 21 µM
CAKI-1 renal
  GI50: 2.42 µM
  TGI: 9.61 µM
CCRF-CEM leukemia
  GI50: 1.68 µM
  TGI: > 50 µM
COLO 205 colon
  GI50: 2.77 µM
  TGI: > 50 µM
DU-145 prostate
  GI50: 1.22 µM
  TGI: 3.27 µM
EKVX NSCLC
  GI50: 1.91 µM
  TGI: 10.3 µM
HCC-2998 colon
  GI50: 6.83 µM
  TGI: 32 µM
HCT-116 colon
  GI50: 1.55 µM
  TGI: 5.34 µM
HCT-15 colon
  GI50: 1.64 µM
  TGI: 10.2 µM
HL-60(TB) leukemia
  GI50: 36.5 µM
  TGI: > 50 µM
HOP-62 NSCLC
  GI50: 2.7 µM
  TGI: 10.9 µM
HOP-92 NSCLC
  GI50: 1.25 µM
  TGI: 5.78 µM
HS 578T breast
  GI50: 1.69 µM
  TGI: 10.4 µM
HT29 colon
  GI50: 4.06 µM
  TGI: > 50 µM
IGROV1 ovarian
  GI50: 2.41 µM
  TGI: 11.2 µM
K-562 leukemia
  GI50: 1.98 µM
  TGI: > 50 µM
KM12 colon
  GI50: 7.47 µM
  TGI: > 50 µM
LOX IMVI melanoma
  GI50: 2.04 µM
  TGI: 7.84 µM
M14 melanoma
  GI50: 2.07 µM
  TGI: 8.83 µM
MALME-3M melanoma
  GI50: 0.724 µM
  TGI: 1.7 µM
MCF7 breast
  GI50: 1.43 µM
  TGI: 5.89 µM
MDA-MB-231 breast
  GI50: 1.45 µM
  TGI: 4.58 µM
MDA-MB-435
  GI50: 2.07 µM
  TGI: 8.26 µM
MOLT-4 leukemia
  GI50: 1.96 µM
  TGI: > 50 µM
NCI-H226 lung
  GI50: 6.68 µM
  TGI: 20.5 µM
NCI-H23 lung
  GI50: 2.01 µM
  TGI: 8.73 µM
NCI-H460 lung
  GI50: 1.17 µM
  TGI: 2.79 µM
NCI-H522 lung
  GI50: 3.58 µM
  TGI: 19.3 µM
NCI/ADR-RES ovarian
  GI50: 1.29 µM
  TGI: 4.68 µM
OVCAR-3 ovarian
  GI50: 1.02 µM
  TGI: 1.94 µM
OVCAR-4 ovarian
  GI50: 0.725 µM
  TGI: 1.46 µM
OVCAR-5 ovarian
  GI50: 2.54 µM
  TGI: 11.6 µM
OVCAR-8 ovarian
  GI50: 1.66 µM
  TGI: 13.4 µM
PC-3 prostate
  GI50: 1.59 µM
  TGI: 7.23 µM
RXF 393 renal
  GI50: 1.01 µM
  TGI: 3.17 µM
SF-268 CNS
  GI50: 1.97 µM
  TGI: 13.8 µM
SF-295 CNS
  GI50: 5.11 µM
  TGI: 12.5 µM
SF-539 CNS
  GI50: 2.5 µM
  TGI: 8.53 µM
SK-MEL-2 melanoma
  GI50: 5.46 µM
  TGI: 15.8 µM
SK-MEL-28 melanoma
  GI50: 1.54 µM
  TGI: 6.34 µM
SK-MEL-5 melanoma
  GI50: 1.49 µM
  TGI: 5.19 µM
SK-OV-3 ovarian
  GI50: 7.3 µM
  TGI: 15.7 µM
SN12C renal
  GI50: 1.3 µM
  TGI: 3.9 µM
SNB-19 CNS
  GI50: 1.96 µM
  TGI: 8.5 µM
SNB-75 CNS
  GI50: 1.04 µM
  TGI: 4.48 µM
SW-620 colon
  GI50: 1.5 µM
  TGI: 7.47 µM
T-47D breast
  GI50: 1.38 µM
  TGI: 5.41 µM
TK-10 renal
  GI50: 1.05 µM
  TGI: 3.58 µM
U251 CNS
  GI50: 1.97 µM
  TGI: 8.67 µM
UACC-257 melanoma
  GI50: 4.03 µM
  TGI: 28.3 µM
UACC-62 melanoma
  GI50: 2.38 µM
  TGI: 10 µM
UO-31 renal
  GI50: 1.01 µM
  TGI: 2.94 µM
